The values that follow come from patent US12594292B2, “Antiviral prodrugs, intermediate-and long-acting formulations and methods” (priority 2022, dated 2026).

Series [1] relates to Huh7.5 cells. The experiment in a line: Cytotoxicity in Huh7.5 cells, nuclei count (Example 6). The format is cell-based, human.
In series [2] the test system is VERO E6 cells. Kind of series: Cellular cytotoxicity in Vero E6 cells, MTT assay (Example 2). It counts as cell-based. How it is done:
(§1) Ten thousand Vero E6 cells were seeded in 100 microliters of culture medium in 96 well plates. The following day serial two-fold dilutions of antiviral compounds or the DMSO-containing vehicle were added to each well. The USA WA-01 strain of SARS CoV-2 was added to each well at a multiplicity of infection of 0.1 thirty minutes later. Cells were incubated for 48 hours, washed twice in PBS and lysed with TRIzol. RNA was extracted using Directzol micro RNA columns. RNA was made into cDNA and assayed for the SARS CoV-2 spike protein and for a housekeeping gene (RPLPO) RNA by qPCR. Data represents the average of duplicate wells. Cellular cytotoxicity was also measured in VERO E6 cells. […] Cytotoxicity (CC50) was assessed using a commercially available MTT assay.

In series [3] the test system is SARS-CoV-2 isolate USA-WA1/2020. Kind of series: SARS-CoV-2 infection in Vero E6 cells, qRT-PCR (Example 7). The note with it: for Selectivity: CC50/EC50, Vero E6 cells; for EC50 / EC90: Vero E6 cells, MOI 0.01, 48 hours. It counts as cell-based.
Series [4] concerns USA WA-01 strain of SARS CoV-2. The experiment in a line: Anti-coronavirus activity in Vero E6 cells, qPCR of spike RNA (Example 2). The format is cell-based. The note with it: for Selectivity Index: CC50/EC50, Vero E6; for EC50 / EC90: MOI 0.1, 48 hours. How it is done:
as §1
On the technique in general: In qPCR the cycle at which signal appears reflects the starting amount.

A further series concerns HCoV-229E. The format is cell-based, human Coronavirus 229E.
Series [5] concerns VERO E6 cells. The experiment in a line: Cell viability assay CellTiter-Glo, Vero E6 cells (Example 7). A general note: ATP-based viability assays read luminescence as a measure of living cells.
In series [6] the test system is Huh7.5 cells. Kind of series: Cell viability assay CellTiter-Glo, Huh7.5 cells (Example 7).
The subject of series [7] is SARS-CoV-2 isolate USA-WA1/2020. The experiment in a line: SARS-CoV-2 infection in Vero E6 cells, qRT-PCR of Spike RNA (Example 3). It counts as cell-based. As to conditions: for Selectivity: CC50/EC50, Vero E6; for EC50 / EC90: Vero E6 cells, MOI 0.01, 48 hours, mean±SD.
Series [8] has the same test system. The experiment in a line: SARS-CoV-2 infection in PSC-human lung cells, qRT-PCR (Example 7). It counts as cell-based. As to conditions: for EC50 / EC90: PSC-human lung cells, MOI 0.01, 48 hours.
Series [9] concerns VERO E6 cells. Kind of series: CellTiter-Glo luminescent cell viability assay, Vero E6 (Example 3). The format is cell-based. The protocol:
CellTiter-glo luminescent cell viability assay: Approximately 10^4 Vero E6 cells per well were seeded in opaque walled 96 well cell culture plates and incubated overnight. Compounds or controls were added at the indicated concentrations. […] Viability was calculated compared to untreated controls and CC50 values were calculated using Prism 8.
Determination of Cytotoxicity: The 50% cytotoxic concentrations (CC50) were determined with Cell Titer Glo (Cat. #G7570, Promega, Madison, WI) according to the manufacturer's instructions. The calculated CC50 values are shown in the foregoing table.
Relative viability was measured by CellTiter-Glo luminescent cell viability assay, as depicted at FIG. 2.

For series [10], the system named is SARS-CoV-2 isolate USA-WA1/2020. Kind of series: SARS-CoV-2 infection in Huh7.5 cells, qRT-PCR (Example 7). It counts as cell-based. As to conditions: for Selectivity: CC50/EC50, Huh7.5 cells; for EC50 / EC90: Huh7.5 cells, MOI 0.01, 48 hours, qRT-PCR (Example 7).
For series [11] the test system is unchanged. The experiment in a line: SARS-CoV-2 infection in Calu-3 cells, qRT-PCR (Example 7). The format is cell-based.
The next series has as its system PSC-human lung cells. The experiment in a line: Cell viability assay CellTiter-Glo, PSC-human lung cells (Example 7).
The next series concerns Caco-2 cells. The experiment in a line: Cell viability assay CellTiter-Glo, Caco-2 cells (Example 7). The note with it: Caco-2 cells, CellTiter-Glo.
Series [12] relates to SARS-CoV-2 isolate USA-WA1/2020. Kind of series: SARS-CoV-2 infection in Caco-2 cells, qRT-PCR (Example 7). It counts as cell-based.
The test system of the next series is Calu-3 cells. Kind of series: Cell viability assay CellTiter-Glo, Calu-3 cells (Example 7). As to conditions: Calu-3 cells, CellTiter-Glo.
A further series relates to HFF cells. Kind of series: Persistence of TFVpp in HFF cells after a 3 day exposure. The text has this:
HFF cells were exposed to 1 micromolar drug for 3 days. At days 0, 1, 2, 4, 7, 14, 21, and 28, cells were trypsinized, counted, and processed for LC/MS measurement of TFVpp. Data were expressed at ftg/cell. nm=not meaningful; ftg—gemtogram.

Series [13] is described as follows: 42 day pharmacokinetic study after a single IM administration in rats, formulations F3, F4, F7, F8. It counts as in vivo. The note with it: for time with plasma levels at a virally significant level: rats, IM, only the 100 mg/kg dose, formulation F3. How it is done:
Comparison of Formulations F3, F4, F7 and F8 following a single IM administration in rats—Groups: Vehicle control, 10 mg/kg, 30 mg/kg and 100 mg/kg of formulations 3, 4, 7, 8.
Procedure: At time zero rats were injected intramuscularly with 100 microliters of vehicle and formulations as noted. […] Blood was obtained at 6, 24 and 48 hours, and at 7, 14, 28, 35 and 42 days and the plasma levels of ODE-Bn-TFV and ODE-TFV (the first metabolite, also an active anti-HIV compound) were determined by LC/MS/MS.
A 42 days pharmacokinetic study of formulations 3, 4, 7, and 8 of this example in rats was conducted. In the study, 100, 30, and 10 mg/kg of each formulation was administered by intramuscular (IM) injection to male Sprague Dawley rates (100 microliters). […] The rats were subjected to twice weekly clinical observations, and weights were collected.

The subject of series [14] is HIV-1. The note with it: for EC50: HIV infected human PBMCs.
Procedure: Antiviral activities were determined in HIV infected human PBMCs.
The test system of the next series is human PBMCs. Kind of series: Cytotoxicity (CC50) in human PBMCs. The format is cell-based.
In series [15] the test system is HIV-1. As to conditions: Beadle et al. Antiviral Res. 2019; cited from earlier work.
On the set-up of series [16]: species or system beagle dogs. As to conditions: dog, in vivo. The protocol: Canine Pharmacokinetics of ODE-Bn-TFV in Formulation F3—A 30 day study in beagle dogs was done with 30 mg/kg IM doses of ODE-Bn-TFV in formulation F3.
The conditions of series [17]: rat, in vivo.
Procedure: Maximal volume IM injections of 100 microliters were given at day 0, 30 and 60 to groups of 3 rats. There were 3 groups of control animals who received monthly injections of F3 vehicle. […] Weights were assessed over the 3-month period. […] Because a constant (maximal) IM volume of 100 microliters was given, the initial dose was 90 mg/kg and the two following injections at days 30 and 60 were lower, 62 mg/kg, due to weight increases of the rats.
The mark [18] stands for this setting: Caco-2 cells, MOI 0.01, 48 hours.

Where two headings read alike, the source gives them in different places. Bounds are passed on as bounds.

Take `CCCCCCCCCCCCCCCCOCCCOP(=O)(O)OC[C@H]1O[C@@](C#N)(c2ccc3c(N)ncnn23)[C@H](O)[C@@H]1O` [Compound 4b, 3-(Hexadecyloxy)propyl-phospho-RVn]: the CC50 (as a rule, the concentration at which the toxic effect on the cells reaches its halfway point) is greater than 20000 nM with Huh7.5 cells [1]; 21000 nM in the series on VERO E6 cells [2]; 32100 ± 17900 nM in the series on MRC-5 cells; greater than 100000 nM in the series on VERO E6 cells [5]; greater than 100000 nM in the series on Huh7.5 cells [6]; 51000 nM with VERO E6 cells [9]. In addition, the values for the Selectivity in series [3], in series [7] and in series [10] were greater than 158, 52 and greater than 526, respectively. The concentration giving a half-maximal response (EC50) – broadly, the midpoint of the concentration-response curve – in [3] stood at 630 nM; in series [4] (Vero E6 cells) it was 840 nM; in the series on HCoV-229E, 3020 ± 360 nM; in [7], 960 ± 170 nM; in series [8], 350 nM; in series [10], 190 nM. This compound also displayed an EC50 in series [10] (listed as HDP-P-RVn) of 190 nM. In addition, the EC90 – broadly, the concentration needed for an effect of 90% – was 730 nM in series [3]; 1580 nM in series [4] (Vero E6 cells); 6600 ± 1140 nM with HCoV-229E; 2100 ± 780 nM in series [7]; 940 nM in series [8]; 400 nM in [10]. Moreover, the “Selectivity Index” value in series [4] is 25.0. Also, the “times more active than remdesivir” value in [4] (USA WA-1 strain, Vero E6 cells) amounted to 3.3.

As to `CCCCCCCCCCCCCCCCCCOCCOP(=O)(O)OC[C@H]1O[C@@](C#N)(c2ccc3c(N)ncnn23)[C@H](O)[C@@H]1O` [Compound 4c, 2-(Octadecyloxy)ethyl-phospho-RVn], the CC50 with Huh7.5 cells [1] is greater than 20000 nM; in the series with VERO E6 cells [2], greater than 50000 nM; in the series with PSC-human lung cells, greater than 100000 nM; in the series on MRC-5 cells, greater than 50000 nM; in the series with Caco-2 cells it was greater than 100000 nM; with VERO E6 cells [5], greater than 100000 nM. For the same compound, the CC50 was greater than 100000 nM in the series on Huh7.5 cells [6], greater than 100000 nM in the series on VERO E6 cells [9] and 98700 nM in the series on Calu-3 cells. The Selectivity in series [11] (CC50/EC50, Calu-3 cells) was 290; in [3] it was greater than 333; in series [12] (CC50/EC50, Caco-2 cells), greater than 129; in series [7] it was greater than 212; in series [8] (CC50/EC50, PSC-human lung cells) it was greater than 454; in series [10], greater than 526. The EC90 in series [11] (Calu-3 cells, MOI 0.01, 48 hours) amounted to 640 nM; in series [3] it was 330 nM; in series [4] (Vero E6 cells) it was 530 nM; in the series with HCoV-229E, 840 ± 95 nM; in [12] (setting [18]) it was 1250 nM; in [7] it was 1100 ± 800 nM. Besides, the 90% effect concentration (EC90) in series [8] turned out to be 700 nM; in series [10] it was 370 nM. Besides, the half-maximal effective concentration (EC50) came out at 340 nM in [11] (Calu-3 cells, MOI 0.01, 48 hours, listed as ODE-P-RVn); 300 nM in series [3]; 350 nM in [4] (Vero E6 cells); 410 ± 12 nM with HCoV-229E; 770 nM in [12] (setting [18]); 470 ± 180 nM in series [7]. Moreover, the EC50 in [8] (listed as ODE-P-RVn) came out at 220 nM; in series [10], 190 nM; in [10] (listed as ODE-P-RVn), 190 nM. Further, the “Selectivity Index” value in series [4] is greater than 143. For the same compound, in [7] (based on the EC50 values, Vero E6), the “times more active than RDV” value was determined as 9.8.

Turning to `CCCCCCCCCCCCCCCCCCOCCOP(=O)(O)CO[C@H](C)Cn1cnc2c(N)ncnc21` [ODE-TFV], in the series on HFF cells, the “T1/2 of TFVpp” value is 1.2 and the “Tmax of TFVpp” value came out at 0 h. Further, the “time with plasma levels at a virally significant level” value in [13] turned out to be 28 days. Also, the EC50 with HIV-1 [14] was found to be 1.1 nM. Further, the ED90 in the series on HIV-1 [14] (reference line in FIG. 12B) is on record as 6.3 nm/mL. The CC50 in the series with human PBMCs was found to be 1280 nM. In the series on HIV-1 [15], the EC90 was 10 nM.

As for “Octadecyloxyethyl benzyl tenofovir [ODE-Bn-TFV]”, in the series on HFF cells, the “T1/2 of TFVpp” value came out at 3.7 and the “Tmax of TFVpp” value was 48 h. Also, in series [13] (rat, in vivo), the initial plasma values is roughly 100 ng/mL. Further, the “time with plasma levels at a virally significant level” value in series [13] was 28 days. For the same compound, the adverse effects entry in [16] is on record as “no adverse effects except for some transient swelling at the injection sites”. The same compound yielded an EC50 in the series with HIV-1 [14] of 1.7 nM. The compound also had an ED90 in the series with HIV-1 [14] (reference line in FIG. 12A) of 10.9 ng/mL. Further, the “Selectivity Index” value with HIV-1 [14] (variation of the diester substituent of ODE-TFV) is given as 5130. Moreover, in series [17], the “clinical observations, metabolic panels, CBCs” value is reported as “no clinical observations of significance”. This compound gave a CC50 in the series with human PBMCs of 8720 nM.
